Molecular target: MetAP-2 (Homo sapiens, UniProt P50579)
Assay: MetAP-2 activity measurement (coupled enzymatic reactions, substrate Met-Arg-Ser)
Format: biochemical
Conditions: Inhibition of MetAP-2; read-out: IC50 enzyme
Procedure: MetAP-2 Activity Measurement
The MetAP-2 activity is determined by coupling enzymatic reactions. The tripeptide Met-Arg-Ser (MAS) is employed as substrate. The methionine liberated is firstly converted into Metox and H2O2 by L-aminooxidase (AAO).
MetAP-2 activity can be recorded continuously as kinetics. The reaction scheme illustrates that one mol of dianisidineox is formed per mol of methionene. The MetAP-2 enzyme activity can therefore be calculated directly as Δ absorption per time unit. […] of the MetAP-2 activity (mol of Met/time unit) is possible with the aid of the dianisidineox extinction coefficient.
The change in extinction per time unit is depicted graphically and a slope calculation is carried out in the visually linear region of the reaction.

MetAP-2, sequence (P50579 whole entry, species assumed): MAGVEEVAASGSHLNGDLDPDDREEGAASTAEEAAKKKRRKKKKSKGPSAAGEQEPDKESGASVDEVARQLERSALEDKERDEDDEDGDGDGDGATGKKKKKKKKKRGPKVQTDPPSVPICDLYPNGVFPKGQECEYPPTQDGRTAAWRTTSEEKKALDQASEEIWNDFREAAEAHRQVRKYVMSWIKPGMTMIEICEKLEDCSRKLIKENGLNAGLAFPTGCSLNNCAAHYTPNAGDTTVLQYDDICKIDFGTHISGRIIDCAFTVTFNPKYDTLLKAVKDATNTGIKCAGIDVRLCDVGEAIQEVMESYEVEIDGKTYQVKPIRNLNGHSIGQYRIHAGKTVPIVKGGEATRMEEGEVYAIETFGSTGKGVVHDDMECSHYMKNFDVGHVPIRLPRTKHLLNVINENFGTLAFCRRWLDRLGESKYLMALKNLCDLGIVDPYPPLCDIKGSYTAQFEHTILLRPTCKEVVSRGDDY

SMILES | IC50
CC(C)(C)c1cnc(CCNC(=O)[C@@]2(O)CCN(c3ccccc3)C2=O)o1 [A2] | > 10000 nM
CC(C)(C)c1nc(CCNC(=O)[C@@]2(O)CCN(c3ccccc3)C2=O)no1 [A10] | > 10000 nM
O=C(NCCc1noc(C2CCCC2)n1)[C@@]1(O)CCN(c2ccccc2)C1=O [A12] | > 10000 nM
CCc1nnnn1CCNC(=O)[C@@]1(O)CCN(c2ccccc2)C1=O [A13] | > 10000 nM
Cc1nnc(CCNC(=O)[C@@]2(O)CCN(c3ccccc3)C2=O)s1 [A14] | > 10000 nM
O=C(NCCc1nnc(C(F)(F)F)o1)[C@@]1(O)CCN(c2ccccc2)C1=O [A15] | > 10000 nM
Cc1nc(CCNC(=O)[C@@]2(O)CCN(c3ccccc3)C2=O)cs1 [A16] | 1000 to 10000 nM
Cc1ccn(CCNC(=O)[C@@]2(O)CCN(c3ccccc3)C2=O)n1 [A19] | 1000 to 10000 nM
O=C(NCc1cccnc1)[C@@]1(O)CCN(c2ccccc2)C1=O [A24] | 1000 to 10000 nM
O=C(NCc1cccc(N2CCCC2)n1)[C@@]1(O)CCN(c2ccccc2)C1=O [A25] | > 10000 nM
O=C(NCc1ccccn1)[C@@]1(O)CCN(c2ccccc2)C1=O [A26] | > 10000 nM
CC(C)(C)c1noc(CCNC(=O)[C@@]2(O)CCN(c3ccccc3)C2=O)n1 [A34] | > 10000 nM
CCc1nnc(CCNC(=O)[C@@]2(O)CCN(c3ccccc3)C2=O)s1 [A35] | > 10000 nM
O=C(NCc1cccc(-c2nccs2)c1)[C@@]1(O)CCN(c2ccccc2)C1=O [A36] | 1000 to 10000 nM
O=C(NCc1cccc(Br)c1)[C@@]1(Cl)CCN(c2ccccc2)C1=O [A39] | > 10000 nM
O=C(NCc1cccc(Br)c1)[C@]1(O)CCN(c2ccc(F)cc2)C1=O [A41] | 1000 to 10000 nM
CCc1nnn(CCNC(=O)[C@]2(O)CCN(c3ccccc3)C2=O)n1 [A42] | > 10000 nM
O=C(NCc1cccc(Br)c1)[C@]1(Cl)CCN(c2ccccc2)C1=O [A43] | > 10000 nM
O=C(NCCn1cccn1)[C@@]1(O)CCN(c2ccccc2)C1=O [A44] | 1000 to 10000 nM
O=C(NCCN1CCCC1)[C@@]1(O)CCN(c2ccccc2)C1=O [A45] | > 10000 nM

Now from value to molecule:

IC50 | SMILES
10 to 1000 nM | O=C(NCc1cccc(Br)c1)[C@@]1(O)CCN(c2ccccc2)C1=O [A1]
1000 to 10000 nM | CCc1nnn(CCNC(=O)[C@@]2(O)CCN(c3ccccc3)C2=O)n1 [A3]
1000 to 10000 nM | O=C(NCc1cccc(OC(F)F)c1)[C@@]1(O)CCN(c2ccccc2)C1=O [A6]
1000 to 10000 nM | O=C(NCc1cccc(OC(F)(F)F)c1)[C@@]1(O)CCN(c2ccccc2)C1=O [A8]
1000 to 10000 nM | Cc1nccn1-c1cccc(CNC(=O)[C@@]2(O)CCN(c3ccccc3)C2=O)c1 [A9]
10 to 1000 nM | O=C(NCCc1nccs1)[C@@]1(O)CCN(c2ccccc2)C1=O [A17]
10 to 1000 nM | O=C(NCc1cccc(Cl)c1F)[C@@]1(O)CCN(c2ccccc2)C1=O [A20]
10 to 1000 nM | O=C(NCc1c(F)ccc(Cl)c1F)[C@@]1(O)CCN(c2ccccc2)C1=O [A21]
10 to 1000 nM | O=C(NCc1cc(Br)ccc1F)[C@@]1(O)CCN(c2ccccc2)C1=O [A22]
10 to 1000 nM | O=C(NCc1ccc(F)c(Br)c1)[C@@]1(O)CCN(c2ccccc2)C1=O [A23]
10 to 1000 nM | O=C(NCc1cccc(C(F)(F)F)c1)[C@@]1(O)CCN(c2ccccc2)C1=O [A28]
10 to 1000 nM | O=C(NCc1cccc(Br)c1)[C@@]1(O)CCN(c2ccc(Br)cc2)C1=O [A29]
10 to 1000 nM | O=C(NCCc1cccs1)[C@@]1(O)CCN(c2ccc(Br)cc2)C1=O [A30]
10 to 1000 nM | O=C(NCCc1cccs1)[C@@]1(O)CCN(c2ccc(F)cc2F)C1=O [A31]
10 to 1000 nM | O=C(NCCc1cccs1)[C@@]1(O)CCN(c2ccc(F)cc2)C1=O [A32]
10 to 1000 nM | O=C(NCCc1cccs1)[C@@]1(O)CCN(c2cccc(Cl)c2)C1=O [A37, (S)-1-(3-chlorophenyl)-3-hydroxy-2-oxopyrrolidine-3-carboxylic acid (2-thiophen-2-ylethyl)amide]
10 to 1000 nM | O=C(NCc1cccc(Br)c1)[C@@]1(O)CCN(c2ccc(F)cc2)C1=O [A38]
10 to 1000 nM | O=C(NCCc1cccs1)[C@]1(O)CCN(c2cccc(Cl)c2)C1=O [A40]

Reference: US8895535B2, “Pyrrolidinones as MetAP-2 inhibitors” (Merck Patent GmbH, priority 2010, dated 2014)
